System: 1st instar larvae of Lucilia cuprina
Test: In-vitro investigation for possible potentiation between spinosad and ivermectin in sheep blowfly larvae (treated chromatography papers, fractions of LC90)
Format: in vivo
Conditions: 48 hours
Procedure: Forty to 50 newly hatched 1st instar larvae of Lucilia cuprina were washed with sheep serum onto chromatography papers treated with serial dilutions of ivermectin or spinosad as set out below. After 48 hours numbers of live and dead larvae were counted. The LC90 was calculated for spinosad and ivermectin. Larvae were exposed to that concentration of spinosad or ivermectin and ½, ¼ and ⅛ of the LC90. In addition larvae were exposed to 1:1, 1:4, 4:1, 9:1 and 1:9 combinations of each chemical with each concentration of chemical being a fraction of the LC90.
There were 19 treatment groups in the study (plus an untreated control group):
D 12-14: Four:one rates of Ivermectin:Spinosad—(0.8×, 0.2×), (0.4×, 0.1×) and (0.2×, 0.05×)
E 15-17: Four:one rates of Spinosad:lvermectin—(0.8×, 0.2×), (0.4×, 0.1×) and (0.2×, 0.05×)
Each group was tested on 4 replicates of 50 flies and the number of dead flies per replicate was recorded.
The method of generalized linear models for overdispersed binomial data using the logistic link function was used for an analysis of the 19 treatment groups. The analysis estimated dose-response lines (on the logarithmic dose scale) for each chemical or combination. The lines for each separate chemical were used to predict the efficacy (on the logistic scale) of the combinations assuming independent action, i.e. with no synergism. These were compared with the efficacy observed or predicted from the dose-response lines for the combinations.

Substance	Mean efficacy (Dose-response) % (0.125x LC90)	Mean efficacy (Dose-response) Logit (0.125x LC90)	Mean efficacy (Sample estimate) % (0.125x LC90)	Mean efficacy (Sample estimate) Logit (0.125x LC90)	Mean efficacy (Dose-response) % (0.25x LC90)	Mean efficacy (Dose-response) Logit (0.25x LC90)	Mean efficacy (Sample estimate) % (0.25x LC90)	Mean efficacy (Sample estimate) Logit (0.25x LC90)	Mean efficacy (Dose-response) % (0.5x LC90)	Mean efficacy (Dose-response) Logit (0.5x LC90)	Mean efficacy (Sample estimate) % (0.5x LC90)	Mean efficacy (Sample estimate) Logit (0.5x LC90)	Mean efficacy (Dose-response) % (1.0x LC90)	Mean efficacy (Dose-response) Logit (1.0x LC90)	Mean efficacy (Sample estimate) % (1.0x LC90)	Mean efficacy (Sample estimate) Logit (1.0x LC90)
ivermectin	1.6%	−4.14 ± 0.48	3.0%	−3.48 ± 0.64	13.2%	−1.88 ± 0.26	11.0%	−2.09 ± 0.35	59.4%	0.38 ± 0.18	59.5%	0.38 ± 0.22	93.3%	2.64 ± 0.34	94.0%	2.75 ± 0.46
spinosad	9.8%	−2.21 ± 0.28	16.0%	−1.66 ± 0.30	30.7%	−0.81 ± 0.17	22.0%	−1.27 ± 0.27	64.1%	0.58 ± 0.16	63.0%	0.53 ± 0.23	87.9%	1.98 ± 0.27	91.5%	2.38 ± 0.39

Reference: patent US20030161854A1, “Synergistic formulations” (priority 2000, published 2003)
